Assays:
Assay type in all cases: in vivo
[1] = system: ragweed (common ragweed, Ambrosia elatior); experiment: Test A postemergence; conditions: Ambrosia artemisiifolia, post-emergence, 240 h, 125 g ai/ha, Postemergence; visual injury after approximately 10 d; 0 to 100 scale where 0 is no effect and 100 is complete control; read-out: Plant response rating, Ragweed
In short: (§1)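 In a loam soil and sand blend, planted seeds got a preemergence directed soil spray, and young plants at the one- to two-leaf stage, 2–10 cm high, got a postemergence application; ~10 d greenhouse hold; injury rated visually, 0 = none, 100 = complete control.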

[2] = system: ryegrass, Italian (Italian ryegrass, Lolium multiflorum); experiment: Test A postemergence; conditions: Lolium multiflorum, post-emergence, 240 h, 125 g ai/ha, Postemergence; visual injury after approximately 10 d; 0 to 100 scale where 0 is no effect and 100 is complete control; read-out: Plant response rating, Ryegrass, Italian
In short: as §1

corn (Zea mays) = experiment: Test A postemergence; conditions: Zea mays, post-emergence, 240 h, 125 g ai/ha, Postemergence; visual injury after approximately 10 d; 0 to 100 scale where 0 is no effect and 100 is complete control
In short: as §1

Kochia (Kochia scoparia) [3] = experiment: Test A postemergence; conditions: Bassia scoparia, post-emergence, 240 h, 125 g ai/ha, Postemergence; visual injury after approximately 10 d; 0 to 100 scale where 0 is no effect and 100 is complete control; read-out: Plant response rating, Kochia
In short: as §1

[4] = system: wheat (Triticum aestivum); experiment: Test A postemergence; conditions: Triticum aestivum, post-emergence, 240 h, 125 g ai/ha, Postemergence; visual injury after approximately 10 d; 0 to 100 scale where 0 is no effect and 100 is complete control; read-out: Plant response rating, Wheat
In short: as §1

[5] = system: pigweed (Amaranthus retroflexus); experiment: Test A postemergence; conditions: Amaranthus retroflexus, post-emergence, 240 h, 125 g ai/ha, Postemergence; visual injury after approximately 10 d; 0 to 100 scale where 0 is no effect and 100 is complete control; read-out: Plant response rating, Pigweed
In short: as §1

[6] = system: barnyardgrass (Echinochloa crus-galli); experiment: Test A postemergence; conditions: Echinochloa crus-galli, post-emergence, 240 h, 125 g ai/ha, Postemergence; visual injury after approximately 10 d; 0 to 100 scale where 0 is no effect and 100 is complete control; read-out: Plant response rating, Barnyardgrass
In short: as §1

[7] = system: giant foxtail (Setaria faberii); experiment: Test A postemergence; conditions: Setaria faberi, post-emergence, 240 h, 125 g ai/ha, Postemergence; visual injury after approximately 10 d; 0 to 100 scale where 0 is no effect and 100 is complete control; read-out: Plant response rating, Foxtail, Giant
In short: as §1

[8] = system: blackgrass (Alopecurus myosuroides); experiment: Test A postemergence; conditions: Alopecurus myosuroides, post-emergence, 240 h, 125 g ai/ha, Postemergence; visual injury after approximately 10 d; 0 to 100 scale where 0 is no effect and 100 is complete control; read-out: Plant response rating, Blackgrass
In short: as §1

[9] = system: Galium (catchweed bedstraw, Galium aparine); experiment: Test A postemergence; conditions: Galium, post-emergence, 240 h, 125 g ai/ha, Postemergence; visual injury after approximately 10 d; 0 to 100 scale where 0 is no effect and 100 is complete control; read-out: Plant response rating, Galium
In short: as §1

[10] = system: ducksalad (Heteranthera limosa); experiment: Test B flooded paddy test; conditions: Heteranthera limosa, Flood, 250 g ai/ha; scale of 0 to 100 where 0 is no effect and 100 is complete control; read-out: Ducksalad plant response rating
In short: (§2)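 Plants at 2-leaf stage flooded to 3 cm above soil, with compounds applied directly to paddy water and that depth maintained. Plants kept in greenhouse 13–15 d. Visual rating versus controls on a 0 (no effect) to 100 (complete control) scale.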

rice (Oryra sativa) = experiment: Test B flooded paddy test; conditions: Oryza sativa, Flood, 250 g ai/ha; scale of 0 to 100 where 0 is no effect and 100 is complete control; read-out: Rice plant response rating
In short: as §2

[11] = system: barnyardgrass (Echinochloa crus-galli); experiment: Test B flooded paddy test; conditions: Echinochloa crus-galli, Flood, 250 g ai/ha; scale of 0 to 100 where 0 is no effect and 100 is complete control; read-out: Barnyardgrass plant response rating
In short: as §2

[12] = system: sedge, umbrella (small-flower umbrella sedge, Cyperus difformis); experiment: Test B flooded paddy test; conditions: Cyperus difformis, Flood, 250 g ai/ha; scale of 0 to 100 where 0 is no effect and 100 is complete control; read-out: Sedge, Umbrella plant response rating
In short: as §2

[13] = system: ragweed (common ragweed, Ambrosia elatior); experiment: Test A preemergence; conditions: Ambrosia artemisiifolia, pre-emergence, 240 h; for pest or weed control at 125 g/ha: 125 g ai/ha, Preemergence, visual injury rating after approximately 10 d, read-out: Ragweed plant response rating (0 to 100 scale, 0 is no effect, 100 is complete control); for pest or weed control at 500 g/ha: 500 g ai/ha, preemergence, visual injury rating about 10 d after treatment, 0 to 100 scale (0 no effect, 100 complete control), read-out: Ragweed plant response rating
In short: as §1

[14] = system: ryegrass, Italian (Italian ryegrass, Lolium multiflorum); experiment: Test A preemergence; conditions: Lolium multiflorum, pre-emergence, 240 h; for pest or weed control at 125 g/ha: 125 g ai/ha, Preemergence, visual injury rating after approximately 10 d, read-out: Ryegrass, Italian plant response rating (0 to 100 scale, 0 is no effect, 100 is complete control); for pest or weed control at 500 g/ha: 500 g ai/ha, preemergence, visual injury rating about 10 d after treatment, 0 to 100 scale (0 no effect, 100 complete control), read-out: Ryegrass, Italian plant response rating
In short: as §1

Kochia (Kochia scoparia) [15] = experiment: Test A preemergence; conditions: Bassia scoparia, pre-emergence, 240 h; for pest or weed control at 125 g/ha: 125 g ai/ha, Preemergence, visual injury rating after approximately 10 d, read-out: Kochia plant response rating (0 to 100 scale, 0 is no effect, 100 is complete control); for pest or weed control at 500 g/ha: 500 g ai/ha, preemergence, visual injury rating about 10 d after treatment, 0 to 100 scale (0 no effect, 100 complete control), read-out: Kochia plant response rating
In short: as §1

[16] = system: pigweed (Amaranthus retroflexus); experiment: Test A preemergence; conditions: Amaranthus retroflexus, pre-emergence, 240 h; for pest or weed control at 125 g/ha: 125 g ai/ha, Preemergence, visual injury rating after approximately 10 d, read-out: Pigweed plant response rating (0 to 100 scale, 0 is no effect, 100 is complete control); for pest or weed control at 500 g/ha: 500 g ai/ha, preemergence, visual injury rating about 10 d after treatment, 0 to 100 scale (0 no effect, 100 complete control), read-out: Pigweed plant response rating
[17] = system: barnyardgrass (Echinochloa crus-galli); experiment: Test A preemergence; conditions: Echinochloa crus-galli, pre-emergence, 240 h; for pest or weed control at 125 g/ha: 125 g ai/ha, Preemergence, visual injury rating after approximately 10 d, read-out: Barnyardgrass plant response rating (0 to 100 scale, 0 is no effect, 100 is complete control); for pest or weed control at 500 g/ha: 500 g ai/ha, preemergence, visual injury rating about 10 d after treatment, 0 to 100 scale (0 no effect, 100 complete control), read-out: Barnyardgrass plant response rating
In short: as §1

[18] = system: giant foxtail (Setaria faberii); experiment: Test A preemergence; conditions: Setaria faberi, pre-emergence, 240 h; for pest or weed control at 125 g/ha: 125 g ai/ha, Preemergence, visual injury rating after approximately 10 d, read-out: Foxtail, Giant plant response rating (0 to 100 scale, 0 is no effect, 100 is complete control); for pest or weed control at 500 g/ha: 500 g ai/ha, preemergence, visual injury rating about 10 d after treatment, 0 to 100 scale (0 no effect, 100 complete control), read-out: Foxtail, Giant plant response rating
In short: as §1

SMILES	pest or weed control at 125 g/ha [1] [%]	pest or weed control at 125 g/ha [2] [%]	Corn plant response rating (crop injury, 0 = no effect, 100 = complete kill) at 125 g/ha (corn (Zea mays)) [%]	pest or weed control at 125 g/ha (Kochia (Kochia scoparia) [3]) [%]	plant injury at 125 g/ha [4] [%]	pest or weed control at 125 g/ha [5] [%]	pest or weed control at 125 g/ha [6] [%]	pest or weed control at 125 g/ha [7] [%]	pest or weed control at 125 g/ha [8] [%]	pest or weed control at 125 g/ha [9] [%]	pest or weed control at 250 g/ha [10] [%]	pest or weed control at 250 g/ha (rice (Oryra sativa)) [%]	pest or weed control at 250 g/ha [11] [%]	pest or weed control at 250 g/ha [12] [%]	pest or weed control at 125 g/ha [13] [%]	pest or weed control at 500 g/ha [13] [%]	pest or weed control at 125 g/ha [14] [%]	pest or weed control at 500 g/ha [14] [%]	pest or weed control at 125 g/ha (Kochia (Kochia scoparia) [15]) [%]	pest or weed control at 500 g/ha (Kochia (Kochia scoparia) [15]) [%]	other results
O=C1NC[C@H](c2cc(C(F)(F)F)cs2)[C@H]1C(=O)Nc1ccccc1F [Compound 960]	0	30	0	0	0	0	50	20	20	0	100	0	20	65	0	0	0	0	20	30	pest or weed control at 125 g/ha [16]: 0%; pest or weed control at 500 g/ha [16]: 0%; pest or weed control at 125 g/ha [17]: 80%; pest or weed control at 500 g/ha [17]: 90%; pest or weed control at 125 g/ha [18]: 70%; pest or weed control at 500 g/ha [18]: 90%
CCc1cc(CC)cc([C@H]2CNC(=O)[C@@H]2C(=O)Nc2ccccc2C(F)(F)F)c1 [Compound 969]	0	20	50	0	30	0	50	50	0	20	0	0	0	0	0	0	40	30	0	0	pest or weed control at 125 g/ha [16]: 0%; pest or weed control at 500 g/ha [16]: 0%; pest or weed control at 125 g/ha [17]: 50%; pest or weed control at 500 g/ha [17]: 80%; pest or weed control at 125 g/ha [18]: 90%; pest or weed control at 500 g/ha [18]: 90%

Reference: patent publication US12077503B2, “Substituted cyclic amides and their use as herbicides” (FMC CORPORATION, priority 2015, dated 2024)
